Data taken from ChEMBL document CHEMBL1125172, “Voronoi binding site model of a polycyclic aromatic hydrocarbon binding protein” (J Med Chem, 1990).
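Further: competitive displacement of radiolabeled [3H]benzo[a]pyrene from its binding site on the protein taken from mouse liver.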

Each compound was assayed on Polycyclic aromatic hydrocarbon binding protein. Conditions: Mus musculus.
Description: Competition for [3H]benzo[a]pyrene-binding site of polycyclic aromatic hydrocarbon binding protein (PBP) from mouse liver
O[C@@H]1C=Cc2cc3ccc4cccc5ccc(c2[C@H]1O)c3c45 gave a Delta Gm of 18.9.
Compound O[C@H]1C=C2c3ccccc3-c3cccc(c32)[C@@H]1O has a Delta Gm of 17.7.
c1ccc2c(c1)ccc1c3ccccc3ccc21 was tested, and the Delta Gm was 17.9.
Work on Nc1cccc2ccccc12 yielded a Delta Gm of 14.4.
O[C@H]1c2cccc3ccc4c5ccccc5cc(c4c23)[C@@H]1O showed a Delta Gm of 17.4.
With c1ccc2c(c1)cc1ccc3cccc4ccc2c1c34 the Delta Gm was 19.
C1=Cc2cc3cccc4ccc5ccc1c2c5c43 gave a Delta Gm of 15.8.
Cc1ccc2cc3c(ccc4ccccc43)c3c2c1CC3 was tested, and the Delta Gm was 17.4.
Work on c1ccc2cc3c4ccccc4c4ccccc4c3cc2c1 yielded a Delta Gm of 18.6.
Compound Nc1cc2ccccc2c2ccccc12 has a Delta Gm of 15.2.
c1ccc2c(c1)-c1cccc3cccc-2c13 showed a Delta Gm of 17.8.
Work on Nc1ccc2c(c1)Cc1ccccc1-2 yielded a Delta Gm of 11.9.
In the case of Oc1ccc2cc3ccc4cccc5ccc(c2c1)c3c45, the Delta Gm is reported as 18.3.
Nc1cccc2cc3ccccc3cc12 showed a Delta Gm of 15.2.
With O[C@H]1C=Cc2c(cc3ccc4cccc5ccc2c3c45)[C@@H]1O the Delta Gm was 18.4.
For c1cc2ccc3cccc4ccc(c1)c2c34, the Delta Gm was 16.3.
